The values that follow come from patent US8178658B2 (Dow AgroSciences, LLC, priority 2008, dated 2012).

The test system of assay [1] is beet armyworm (BAW; Spodoptera exigua: Lepidoptera). Nature of the assay: 128-well diet tray assay on beet armyworm (BAW 50). The assay is classed as in vivo. Particulars: 128-well diet tray assay; 50 μg/cm^2 of test compound on diet; second instar BAW larvae; mortality class. As to the method: (§1) Bioassays on beet armyworm (BAW; Spodoptera exigua: Lepidoptera) were conducted using either a 96-well microtiter plate-based high throughput (HTS) bioassay or a 128-well diet tray assay. The HTS assay is a based on a modification of Lewer et al. J. Nat. Prod. 2006, 69, 1506. BAW eggs of were placed on top of artificial diet (100 μl) in each well of 96-well microtiter plate. The diet was pretreated with test compounds (12 μg dissolved in 30 μL of DMSO-acetone-water mixture) layered on top of the diet using a liquid handling system and then allowed to dry for several hours. Infested plates were then covered with a layer of sterile cotton batting and the plate lid, and then held in the dark at 29° C. Mortality was recoded at 6 d post-treatment. Each plate had six replicates. The percent mortality was calculated from the average of the six replicates. In the case of the 128-well diet assay, three to five second instar BAW larvae were placed in each well (3 mL) of the diet tray that had been previously filled with 1 mL of artificial diet to which 50 μg/cm^2 of the test compound (dissolved in 50 μL of 90:10 acetone-water mixture) had been applied (to each of eight wells) and then allowed to dry. Trays were covered with a clear self-adhesive cover, and held at 25° C., 14:10 light-dark for six days. Percent mortality was recorded for the larvae in each well; activity in the eight wells was then averaged. In Table 7, under the BAW HTS or BAW 50 heading, an “A” means that the compound was tested and at least 50 percent mortality was observed whereas, “B” means that either (1) the compound was tested and less than 50 percent mortality was observed or (2) the compound was not tested.

The test system is the same in assay [2]. As to the kind of experiment: 96-well microtiter plate-based high throughput (HTS) diet bioassay on beet armyworm (BAW HTS). It counts as in vivo. Particulars: BAW eggs, 12 μg test compound per well, mortality at 6 d post-treatment, mortality class. How it is done:
as §1

Setting [3] is: 96-well microtiter plate HTS diet assay.

Turning to `CCOC1C(C)OC(ON=Cc2ccc(-c3cn(-c4ccc(C(F)(F)F)cn4)cn3)cc2)C(OCC)C1OCC` (stereo not drawn) [Compound 33], the “BAW 50 ug/cm2” value in assay [1] is “A (the compound was tested and at least 50 percent mortality was observed)”. In addition, the “BAW HTS” value is “A (the compound was tested and at least 50 percent mortality was observed)” in assay [2] (96-well HTS diet bioassay); “A (the compound was tested and at least 50 percent mortality was observed)” in assay [2] (setting [3]).

With `COC1C(C)OC(ON=Cc2ccc(-c3cn(-c4cc(Br)ccc4Cl)cn3)cc2)C(OC)C1OC` (stereo not drawn) [Compound 34], the “BAW 50 ug/cm2” value in assay [1] is “A (the compound was tested and at least 50 percent mortality was observed)”. The “BAW HTS” value in assay [2] (96-well HTS diet bioassay) was “B (either (1) the compound was tested and less than 50 percent mortality was observed or (2) the compound was not tested)”; in assay [2] (setting [3]), “B (either (1) the compound was tested and less than 50 percent mortality was observed or (2) the compound was not tested)”.

On to `COc1ccc(C=NOC2OC(C)C(OC)C(OC)C2OC)cc1-c1cn(-c2ccc(OC(F)(F)F)cc2)cn1` (stereo not drawn) [Compound 35], for which the “BAW 50 ug/cm2” value in assay [1] is “A (the compound was tested and at least 50 percent mortality was observed)”. The “BAW HTS” value in assay [2] (96-well HTS diet bioassay) is “B (either (1) the compound was tested and less than 50 percent mortality was observed or (2) the compound was not tested)”; in assay [2] (setting [3]), “B (either (1) the compound was tested and less than 50 percent mortality was observed or (2) the compound was not tested)”.

Turning to `COC1C(C)OC(ON=Cc2ccc(-c3cn(-c4ccc(OC(F)(F)F)cc4)cn3)cc2F)C(OC)C1OC` (stereo not drawn) [Compound 36], in assay [1], the “BAW 50 ug/cm2” value is “A (the compound was tested and at least 50 percent mortality was observed)”. Besides, the “BAW HTS” value in assay [2] (96-well HTS diet bioassay) was “B (either (1) the compound was tested and less than 50 percent mortality was observed or (2) the compound was not tested)”; in assay [2] (setting [3]) it was “B (either (1) the compound was tested and less than 50 percent mortality was observed or (2) the compound was not tested)”.

Take `COC1C(C)OC(ON=Cc2ccc(-c3cn(-c4ccc(OCC(F)(F)F)cc4)cn3)cc2)C(OC)C1OC` (stereo not drawn) [Compound 37]: in assay [1], the “BAW 50 ug/cm2” value is “A (the compound was tested and at least 50 percent mortality was observed)”. For the same molecule, the “BAW HTS” value was “B (either (1) the compound was tested and less than 50 percent mortality was observed or (2) the compound was not tested)” in assay [2] (96-well HTS diet bioassay); “B (either (1) the compound was tested and less than 50 percent mortality was observed or (2) the compound was not tested)” in assay [2] (setting [3]).

In the case of `COC1C(C)OC(ON=Cc2ccc(-c3cn(-c4nc(F)c(F)c(F)c4F)cn3)cc2)C(OC)C1OC` (stereo not drawn) [Compound 38], the “BAW 50 ug/cm2” value in assay [1] was “A (the compound was tested and at least 50 percent mortality was observed)”. In addition, the “BAW HTS” value in assay [2] (96-well HTS diet bioassay) is “B (either (1) the compound was tested and less than 50 percent mortality was observed or (2) the compound was not tested)”; in assay [2] (setting [3]) it was “B (either (1) the compound was tested and less than 50 percent mortality was observed or (2) the compound was not tested)”.

In the case of `COC1C(C)OC(ON=Cc2ccc(-c3cn(-c4ccc(I)cn4)cn3)cc2)C(OC)C1OC` (stereo not drawn) [Compound 39], the “BAW 50 ug/cm2” value in assay [1] was “A (the compound was tested and at least 50 percent mortality was observed)”. For the same molecule, the “BAW HTS” value in assay [2] (96-well HTS diet bioassay) is “B (either (1) the compound was tested and less than 50 percent mortality was observed or (2) the compound was not tested)”; in assay [2] (setting [3]) it was “B (either (1) the compound was tested and less than 50 percent mortality was observed or (2) the compound was not tested)”.

For the molecule `COc1ccc(C=NOC2OC(C)C(OC)C(OC)C2OC)cc1-c1cn(-c2ccc(C(F)(F)F)cc2)cn1` (stereo not drawn) [Compound 40], the “BAW 50 ug/cm2” value in assay [1] is “A (the compound was tested and at least 50 percent mortality was observed)”. The “BAW HTS” value in assay [2] (96-well HTS diet bioassay) is “B (either (1) the compound was tested and less than 50 percent mortality was observed or (2) the compound was not tested)”; in assay [2] (setting [3]), “B (either (1) the compound was tested and less than 50 percent mortality was observed or (2) the compound was not tested)”.

`COC1C(C)OC(ON=Cc2ccc(-c3cn(-c4ccc(C)cc4)cn3)cc2)C(OC)C1OC` (stereo not drawn) [Compound 41]: the “BAW 50 ug/cm2” value in assay [1] is “A (the compound was tested and at least 50 percent mortality was observed)”. Besides, the “BAW HTS” value is “B (either (1) the compound was tested and less than 50 percent mortality was observed or (2) the compound was not tested)” in assay [2] (96-well HTS diet bioassay); “B (either (1) the compound was tested and less than 50 percent mortality was observed or (2) the compound was not tested)” in assay [2] (setting [3]).

On to `COC1C(C)OC(ON=Cc2ccc(-c3cn(-c4ccc(C(F)(F)F)cc4)cn3)cc2)C(OC)C1OC` (stereo not drawn) [Compound 42], for which the “BAW 50 ug/cm2” value in assay [1] was “A (the compound was tested and at least 50 percent mortality was observed)”. The “BAW HTS” value in assay [2] (96-well HTS diet bioassay) is “B (either (1) the compound was tested and less than 50 percent mortality was observed or (2) the compound was not tested)”; in assay [2] (setting [3]), “B (either (1) the compound was tested and less than 50 percent mortality was observed or (2) the compound was not tested)”.

For the molecule `COC1C(C)OC(ON=Cc2ccc(-c3cn(-c4ccc(Cl)cc4)cn3)cc2)C(OC)C1OC` (stereo not drawn) [Compound 43], the “BAW 50 ug/cm2” value in assay [1] was “A (the compound was tested and at least 50 percent mortality was observed)”. Moreover, the “BAW HTS” value in assay [2] (96-well HTS diet bioassay) was “B (either (1) the compound was tested and less than 50 percent mortality was observed or (2) the compound was not tested)”; in assay [2] (setting [3]), “B (either (1) the compound was tested and less than 50 percent mortality was observed or (2) the compound was not tested)”.

Take `COc1ccc(-n2cnc(-c3ccc(C=NOC4OC(C)C(OC)C(OC)C4OC)cc3)c2)cc1` (stereo not drawn) [Compound 44]: in assay [1], the “BAW 50 ug/cm2” value is “A (the compound was tested and at least 50 percent mortality was observed)”. In addition, the “BAW HTS” value is “B (either (1) the compound was tested and less than 50 percent mortality was observed or (2) the compound was not tested)” in assay [2] (96-well HTS diet bioassay); “B (either (1) the compound was tested and less than 50 percent mortality was observed or (2) the compound was not tested)” in assay [2] (setting [3]).

Regarding `COC1C(C)OC(ON=Cc2ccc(-c3cn(-c4ccc(Br)cc4)cn3)cc2)C(OC)C1OC` (stereo not drawn) [Compound 45], the “BAW 50 ug/cm2” value in assay [1] is “A (the compound was tested and at least 50 percent mortality was observed)”. Moreover, the “BAW HTS” value is “B (either (1) the compound was tested and less than 50 percent mortality was observed or (2) the compound was not tested)” in assay [2] (96-well HTS diet bioassay); “B (either (1) the compound was tested and less than 50 percent mortality was observed or (2) the compound was not tested)” in assay [2] (setting [3]).

Take `COC1C(C)OC(ON=Cc2ccc(-c3cn(-c4ccc(C(C)C)cc4)cn3)cc2)C(OC)C1OC` (stereo not drawn) [Compound 46]: the “BAW 50 ug/cm2” value in assay [1] was “A (the compound was tested and at least 50 percent mortality was observed)”. The “BAW HTS” value in assay [2] (96-well HTS diet bioassay) is “B (either (1) the compound was tested and less than 50 percent mortality was observed or (2) the compound was not tested)”; in assay [2] (setting [3]), “B (either (1) the compound was tested and less than 50 percent mortality was observed or (2) the compound was not tested)”.

On to `COC1C(C)OC(ON=Cc2ccc(-c3cn(-c4ccc(I)cc4)cn3)cc2)C(OC)C1OC` (stereo not drawn) [Compound 47], for which the “BAW 50 ug/cm2” value in assay [1] was “A (the compound was tested and at least 50 percent mortality was observed)”. The “BAW HTS” value in assay [2] (96-well HTS diet bioassay) is “B (either (1) the compound was tested and less than 50 percent mortality was observed or (2) the compound was not tested)”; in assay [2] (setting [3]), “B (either (1) the compound was tested and less than 50 percent mortality was observed or (2) the compound was not tested)”.

Take `COC1C(C)OC(ON=Cc2ccc(-c3cn(-c4ccc(C(C)(C)C)cc4)cn3)cc2)C(OC)C1OC` (stereo not drawn) [Compound 48]: in assay [1], the “BAW 50 ug/cm2” value was “A (the compound was tested and at least 50 percent mortality was observed)”. Further, the “BAW HTS” value in assay [2] (96-well HTS diet bioassay) is “B (either (1) the compound was tested and less than 50 percent mortality was observed or (2) the compound was not tested)”; in assay [2] (setting [3]), “B (either (1) the compound was tested and less than 50 percent mortality was observed or (2) the compound was not tested)”.

On to `COC1C(C)OC(ON=Cc2ccc(-c3cn(-c4ccc(OC(F)(F)F)cc4)cn3)c(F)c2F)C(OC)C1OC` (stereo not drawn) [Compound 49], for which the “BAW 50 ug/cm2” value in assay [1] is “A (the compound was tested and at least 50 percent mortality was observed)”. Besides, the “BAW HTS” value in assay [2] (96-well HTS diet bioassay) was “B (either (1) the compound was tested and less than 50 percent mortality was observed or (2) the compound was not tested)”; in assay [2] (setting [3]) it was “B (either (1) the compound was tested and less than 50 percent mortality was observed or (2) the compound was not tested)”.

For the molecule `COC1C(C)OC(ON=Cc2ccc(Cl)c(-c3cn(-c4ccc(OC(F)(F)F)cc4)cn3)c2)C(OC)C1OC` (stereo not drawn) [Compound 50], the “BAW 50 ug/cm2” value in assay [1] was “A (the compound was tested and at least 50 percent mortality was observed)”. Further, the “BAW HTS” value in assay [2] (96-well HTS diet bioassay) was “A (the compound was tested and at least 50 percent mortality was observed)”; in assay [2] (setting [3]), “A (the compound was tested and at least 50 percent mortality was observed)”.
